This is an account of results in patent US20130040908A1, “SUBSTITUTION DERIVATIVES OF N6-BENZYLADENOSINE-5' -MONOPHOSPHATE, METHODS OF PREPARATION THEREOF, USE THEREOF AS MEDICAMENTS, AND THERAPEUTIC PREPARATIONS CONTAINING THESE COMPOUNDS” (BIOAPEX, S.R.O., priority 2010, published 2013).

In assay [1] the test system is K-562 (human erythroleukemia). Put plainly: Calcein AM cytotoxicity assay, K-562. The class given is cell-based. The text has this: (§1) Because toxic compounds negatively influence metabolic processes in cells, many standard cytotoxicity assays are based on measurement of metabolisation rate of various artificial substrates. Resulting product is then quantified e.g. by means of spectrometry. The assays can be easily modified for use in 96-well plates. For evaluation of cytotoxic effect of the novel substituted 9-substituted cytokinin derivatives of this invention, a microtiter assay based on quantification of metabolisation of Calcein AM was used. The assay is widely used in drug screening programs and in chemosensitivity testing. In the living cells, Calcein AM is enzymatically hydrolysed and accumulation of resulting calcein is manifested by green fluorescence.
(§2) Normal human fibroblasts BJ were used as a control for routine screening of the compounds. The cells were kept in Nunc/Corning 80 cm^2 plastic bottles and grown in cell culture medium (DMEM containing 5 g/l glucose, 2 mM glutamine, 100 U/ml penicillin, 100 μg/ml streptomycine, 10% fetal bovine serum and sodium hydrogencarbonate), the compounds were prepared according to the procedure of the present invention.
(§3) The cell suspensions were prepared and diluted according to the particular cell type and the expected target cell density (2.500-30.000 cells per well based on cell growth characteristics) and pippetted (80 μl) into 96-well plates. […] Tested compound was added in total volume of 20 μl of water at time zero. Usually, test compound was evaluated at six 3-fold dilutions. […] All drug concentrations were tested in triplicates. […] At the end of incubation period Calcein AM in PBS was added into final concentration of 1 μg/ml. After another 1 hour of incubation fluorescence (FD) was measured with the Labsystem FIA Reader Fluoroscan Ascent (UK). Growth inhibition (GI) was estimated using the following equitation: GI=(mean FDdrug exposed wells−mean FDblank)/(mean FDcontrol wells−mean FDblank)×100%.

Assay [2] relates to CEM (T-lymphoblastoid leukemia). Description: Calcein AM cytotoxicity assay, CEM. In kind it is cell-based. The settings on record: 72 hours.
Source text: as §1, §2, §3

For another assay, the system named is MCF-7 (breast carcinoma). Description: Calcein AM cytotoxicity assay, MCF7. In kind it is cell-based. The settings on record: MCF7, 72 hours.
Source text: as §1, §2, §3

The subject of assay [3] is Normal human fibroblasts BJ. Description: Calcein AM cytotoxicity assay, BJ fibroblasts. In kind it is cell-based. The settings on record: 72 hours.
Source text: as §1, §2, §3

In assay [4] the test system is G-361 (human malignant melanoma). Put plainly: Calcein AM cytotoxicity assay, G-361. The settings on record: G-361, 72 hours. The class given is cell-based.
Source text: as §1, §2, §3

Assay [5] has as its system HL-60 (promyelocytic leukemia). Description: Calcein AM cytotoxicity assay, HL60. In kind it is cell-based, human.
Source text: as §1, §2, §3

Assay [6] concerns HOS (human osteogenic sarcoma). Put plainly: Calcein AM cytotoxicity assay, HOS. In kind it is cell-based. As to conditions: 72 hours.
Source text: as §1, §2, §3

A further assay has as its system Human lymphocytes. Description: Immunosuppressive activity, 3H-thymidine incorporation in concanavalin A activated lymphocytes. In kind it is cell-based. As to conditions: 72 hours, [3H]-TdR. The text has this: One of the most important parameters of specific cellular immunity is the proliferative response of lymphocytes to antigens or polyclonal mitogens. The majority of normal mammalian peripheral lymphocytes comprise resting cells. Antigens or nonspecific polyclonal mitogens have the capacity to activate lymphoid cells and this is accompanied by dramatic changes of intracellular metabolism (mitochondrial activity, protein synthesis, nucleic acids synthesis, formation of blastic cells and cellular proliferation). […] Variety of in vitro assays was developed to measure proliferative response of lymphocytes. The most commonly used is ^3H-thymidine incorporation method.
During cell proliferation, DNA has to be replicated before the cell is divided into two daughter cells. This close association between cell doublings and DNA synthesis is very attractive for assessing cell proliferation. If labelled DNA precursors are added to the cell culture, cells that are about to divide incorporate the labelled nucleotide into their DNA. Traditionally, those assays usually involve the use of radiolabelled nucleosides, particularly tritiated thymidine ([^3H]-TdR). The amount of [^3H]-TdR incorporated into the cellular DNA is quantified by liquid scintillation counting. Human heparinized peripheral blood was obtained from healthy volunteers by cubital vein punction. The blood was diluted in PBS (1:3) and mononuclear cells were separated by centrifugation in Ficoll-Hypaque density gradient (Pharmacia, 1.077 g/ml) at 2200 rpm for 30 minutes. Following centrifugation, lymphocytes were washed in PBS and resuspended in cell culture medium (RMPI 1640, 2 mM glutamine, 100 U/ml penicillin, 100 μg/ml streptomycin, 10% fetal calf serum and sodium bicarbonate).
The cells were diluted at target density of 1.100.000 cells/ml and were added by pipette (180 μl) into 96-well microtiter plates. Four-fold dilutions of the intended test concentration were added at time zero in 20 μl aliquots to the microtiter plate wells. Usually, test compound was evaluated at six 4-fold dilutions. In routine testing, the highest well concentration was 266.7 μM. All drug concentrations were examined in duplicates. All wells with exception of unstimulated controls were activated with 50 of concanavalin A (25 μg/ml). Incubations of cells with test compounds lasted for 72 hours at 37° C., in 5% CO2 atmosphere and 100% humidity. At the end of incubation period, the cells were assayed by using the [^3H]-TdR:
Cell cultures were incubated with 0.5 μCi (20 μl of stock solution 500 μCi/ml per well for 6 hours at 37° C. and 5% CO2. The automated cell harvester was used to lyse cells in water and adsorb the DNA onto glass-fiber filters in the format of microtiter plate. The DNA incorporated [^3H]-TdR was retained on the filter while unincorporated material passes through. The filters were dried at room temperature overnight, sealed into a sample bag with 10-12 ml of scintillant. The amount of [^3H]-TdR present in each filter (in cpm) was determined by scintillation counting in a Betaplate liquid scintillation counter. The effective dose of immunosuppressant (ED) was calculated using the following equation: ED=(CCPMdrug exposed well/mean CCPMcontrol wells)×100%. The ED50 value, the drug concentration inhibiting proliferation of 50% of lymphocytes, was calculated from the obtained dose response curves.

A value given as a limit tells only on which side of the number the result lay.

One may read the GI50 as the concentration at which growth is held to half of that of the control. As for “zeatin riboside-5′-monophosphate [reference compound]”, the GI50 in assay [1] (K-562, 72 hours) was > 167 µM; in assay [2], > 167 µM; in the assay with MCF-7 (breast carcinoma), > 167 µM; in assay [3], > 167 µM; in assay [4], > 167 µM; in assay [5] (HL60, 72 hours), > 167 µM. Also, the GI50 in assay [6] was > 167 µM.

In the case of `O=P(O)(O)OC[C@H]1O[C@@H](n2cnc3c(NCc4cccc(F)c4)ncnc32)[C@H](O)[C@@H]1O` [Compound 2, 6-(3-fluorobenzylamino)purine riboside-5′-monophosphate], the GI50 in assay [1] (K-562, 72 hours) is 7.2 µM; in assay [2], 3.2 µM; in the assay on MCF-7 (breast carcinoma), 14.7 µM; in assay [4] it was 14.6 µM; in assay [5] (HL60, 72 hours) it was 0.83 µM. The “Human lymphocytes ED50” value with Human lymphocytes came to 11.5 µM.

Regarding `COc1ccccc1CNc1ncnc2c1ncn2[C@@H]1O[C@H](COP(=O)(O)O)[C@@H](O)[C@H]1O` [Compound 15, 6-(2-methoxybenzylamino)purine riboside-5′-monophosphate], the GI50 in assay [1] (K-562, 72 hours) is 8.4 µM; in assay [2], 2.4 µM; in the assay with MCF-7 (breast carcinoma), 113 µM; in assay [5] (HL60, 72 hours) it was 2.1 µM; in assay [6] it was 20.1 µM.

Regarding `O=P(O)(O)OC[C@H]1O[C@@H](n2cnc3c(NCc4cccc(O)c4)ncnc32)[C@H](O)[C@@H]1O` [Compound 22, 6-(3-hydroxybenzylamino)purine riboside-5′-monophosphate], the GI50 is 92.4 µM in assay [1] (K-562, 72 hours); 49.8 µM in assay [2]; 108 µM in the assay with MCF-7 (breast carcinoma); 19 µM in assay [5] (HL60, 72 hours). Besides, in the assay with Human lymphocytes, the “Human lymphocytes ED50” value is 12.8 µM.

In the case of `O=P(O)(O)OC[C@H]1O[C@@H](n2cnc3c(NCc4ccc(F)cc4)ncnc32)[C@H](O)[C@@H]1O` [Compound 3, 6-(4-fluorobenzylamino)purine riboside-5′-monophosphate], the GI50 in assay [1] (K-562, 72 hours) was 6.1 µM; in assay [2], 1.2 µM; in the assay on MCF-7 (breast carcinoma), 12.3 µM; in assay [5] (HL60, 72 hours) it was 0.69 µM; in assay [6], 12.1 µM. Further, the “Human lymphocytes ED50” value in the assay with Human lymphocytes was 13.4 µM.

For `Nc1ncnc2c1ncn2[C@@H]1O[C@H](COP(=O)(O)O)[C@@H](O)[C@H]1O` [adenosine-5′-monophosphate, reference compound], the GI50 is > 167 µM in assay [1] (Homo sapiens, K562, K-562, 72 hours); > 167 µM in assay [2]; > 167 µM with MCF-7 (breast carcinoma) (Homo sapiens); > 167 µM in assay [3] (Homo sapiens, Fibroblast); > 167 µM in assay [4] (Homo sapiens); > 167 µM in assay [5] (Homo sapiens, HL-60, HL60, 72 hours). For the same compound, in assay [6] (Homo sapiens), the GI50 was > 167 µM.

`Cc1ccccc1CNc1ncnc2c1ncn2[C@@H]1O[C@H](COP(=O)(O)O)[C@@H](O)[C@H]1O` [Compound 12, 6-(2-methylbenzylamino)purine riboside-5′-monophosphate]: the GI50 in assay [2] was 11.4 µM; in the assay on MCF-7 (breast carcinoma), 144 µM; in assay [5] (HL60, 72 hours), 3.1 µM. In addition, the “Human lymphocytes ED50” value with Human lymphocytes amounted to 7.3 µM.

`O=P(O)(O)OC[C@H]1O[C@@H](n2cnc3c(NCc4ccc(Cl)c(Cl)c4)ncnc32)[C@H](O)[C@@H]1O` [Compound 25, 6-(3,4-dichlorobenzylamino)purine riboside-5′-monophosphate]: the GI50 is 6.1 µM in assay [1] (K-562, 72 hours); 3.1 µM in assay [2]; 82.8 µM with MCF-7 (breast carcinoma); 132 µM in assay [3]; 1 µM in assay [5] (HL60, 72 hours); 112 µM in assay [6].

For `O=P(O)(O)OC[C@H]1O[C@@H](n2cnc3c(NCc4ccccc4Br)ncnc32)[C@H](O)[C@@H]1O` [Compound 7, 6-(2-bromobenzylamino)purine riboside-5′-monophosphate], the GI50 in assay [1] (K-562, 72 hours) was 9.7 µM; in assay [2] it was 2.3 µM; in the assay with MCF-7 (breast carcinoma), 45.6 µM; in assay [5] (HL60, 72 hours), 5.9 µM.

Consider `Cc1cccc(CNc2ncnc3c2ncn3[C@@H]2O[C@H](COP(=O)(O)O)[C@@H](O)[C@H]2O)c1` [Compound 13, 6-(3-methylbenzylamino)purine riboside-5′-monophosphate], for which the GI50 in assay [1] (K-562, 72 hours) is 160 µM; in assay [2] it was 11.6 µM; in the assay on MCF-7 (breast carcinoma), 71.7 µM; in assay [5] (HL60, 72 hours) it was 6.6 µM. For the same compound, the “Human lymphocytes ED50” value with Human lymphocytes was 7.5 µM.
